Six compounds from patent US11739305B2, “Sialyltransferase variants having neosialidase activity” (The Regents of the University of California, priority 2017, dated 2023) can be followed below.

The assay deals with T1, Pd2,6ST S232L/T356S/W361F (Photobacterium damselae, UniProt O66375, S232L/T356S/W361F).
T1 construct: (Δ15Pd2, 6ST); His6 tag with thrombin site ([…]) (N); made in house; host or cells: E. coli BL21(DE3)
The assay can be described thus: Linkage specificity assays (relative sialidase activity towards sialosides, HPLC). It is filed as biochemical. The following applies: for Relative sialidase activity: of Pd2,6ST S232L/T356S/W361F towards the sialoside, 1 mM substrate, 0.5 mM CMP, pH 6.0, 37° C., 30 minutes, relative to compound 2. How it is done: Reactions were performed in duplicate at 37° C. for 30 minutes in MES buffer (100 mM, pH 6.0), MgCl2 (10 mM), CMP (0.5 mM), and 1 mM substrate. Enzyme concentrations were 0.030 μM for 2, 0.30 μM for 7, 3.0 μM 6, and 30.0 μM for 3-5. These conditions provided testing at initial rates (1.2-24% yield) for each substrate. Reactions were stopped by adding an equal volume of pre-chilled methanol. The mixtures were incubated on ice for 30 minutes and centrifuged at 13,000 rpm for 5 minutes. Supernatants were analyzed with an Infinity 1290-II HPLC equipped with a UV-Vis detector (Agilent Technologies, CA). The HPLC procedure utilized a ZORBAX Eclipse Plus C18 Rapid Resolution HD 1.8 μm particle 2.1×50 mm column (Agilent Technologies, CA), an isocratic flow of 1 mL min′ for a 9% acetonitrile and 91% aqueous solution containing 0.1% TFA, and an injection volume of 2 μL. The para-nitrophenyl absorbance signal was monitored at 315 nm.

The mark [1] stands for this setting: cleavage by Pd2,6ST S232L/T356S/W361F.

In turn, `CC(=O)N[C@H]1[C@H]([C@H](O)[C@H](O)CO)OC(OC[C@H]2O[C@@H](Oc3ccc([N+](=O)[O-])cc3)[C@H](O)[C@@H](O)[C@H]2O)(C(=O)O)C[C@@H]1O` (stereo partly shown) [Compound 2, Neu5Acα2-6GalβpNP] displayed a Relative sialidase activity of 1.0. Besides, under setting [1], the “neosialidase activity toward the sialoside, in words” value is on record as “suitable substrate”.
Consider `CC(=O)N[C@H]1[C@H]([C@H](O)[C@H](O)CO)OC(O[C@H]2[C@@H](O)[C@@H](CO)O[C@@H](Oc3ccc([N+](=O)[O-])cc3)[C@@H]2O)(C(=O)O)C[C@@H]1O` (stereo partly shown) [Compound 3, Neu5Acα2-3GalβpNP], for which the Relative sialidase activity is on record as 2.5 × 10^−3. Further, the “activity lower than toward Neu5Acα2-6GalβpNP (2)” value under setting [1] is reported as roughly 400 fold.
With `CC(=O)NC1C(O)CC(OC(CO)C(O)C2OC(OC3C(O)C(CO)OC(Oc4ccc([N+](=O)[O-])cc4)C3O)(C(=O)O)CC(O)C2NC(C)=O)(C(=O)O)OC1C(O)C(O)CO` (stereo not shown) [Compound 4, Neu5Acα2-8Neu5Acα2-3GalβpNP], the Relative sialidase activity was 3.3 × 10^−3. Also, the “neosialidase activity toward the sialoside, in words” value under setting [1] is listed as “not detected”.
Regarding `O=C(O)C1(OCC2OC(Oc3ccc([N+](=O)[O-])cc3)C(O)C(O)C2O)CC(O)C(O)C(C(O)C(O)CO)O1` (stereo not shown) [Compound 5, Kdnα2-6GalβpNP], the Relative sialidase activity is listed as 9.8 × 10^−4. Besides, under setting [1], the “cleavage rate as percent of the rate of Neu5Acα2-6GalβpNP (2)” value was found to be 0.1% and the “neosialidase activity toward the sialoside, in words” value is given as “not a suitable substrate”.
Regarding `O=C(CO)NC1C(O)CC(OCC2OC(Oc3ccc([N+](=O)[O-])cc3)C(O)C(O)C2O)(C(=O)O)OC1C(O)C(O)CO` (stereo not shown) [Compound 6, Neu5Gcα2-6GalβpNP], the Relative sialidase activity was 1.2 × 10^−1. Under setting [1], the “cleavage rate as percent of the rate of Neu5Acα2-6GalβpNP (2)” value is “approximately 12%”.
`CC(=O)NC1C(Oc2ccc([N+](=O)[O-])cc2)OC(COC2(C(=O)O)CC(O)C(NC(C)=O)C(C(O)C(O)CO)O2)C(O)C1O` (stereo not shown) [Compound 7, Neu5Acα2-6GalNAcβpNP] displayed a Relative sialidase activity of 1.9. Further, the “neosialidase activity toward the sialoside, in words” value under setting [1] is “higher”.
